Structures are written as SMILES.

The first test deals with lipoamide dehydrogenase (Lpd) (Mycobacterium tuberculosis (strain ATCC 25618 / H37Rv), UniProt P9WHH9). In words: Lipoamide Dehydrogenase (Lpd) Inhibition Assay. Type of test: biochemical.
Details: not given
Compound `COc1ccc(NC(=O)CN(C)S(=O)(=O)c2cc(Br)cnc2N)cc1Cl` [Compound 503] gave an IC50 of 700 ± 80 nM.
The compound `CN(CC(=O)Nc1ccc(F)cc1)S(=O)(=O)c1cc(Br)cnc1N` [Compound 504] came in with an IC50 of 4300 ± 1210 nM.
The compound `CC(C)c1ccc(NC(=O)C2CCN(S(=O)(=O)c3cn(C(C)C)cn3)CC2)cc1` [Compound 509] yielded a half-inhibitory concentration (IC50) of 2870 ± 520 nM.
On the same count and under the same terms, as for `CCOc1ccc(NC(=O)C2CCN(S(=O)(=O)c3cn(C(C)C)cn3)CC2)cc1` [Compound 520], the figure is 2170 ± 370 nM; as for `CC(C)n1cnc(S(=O)(=O)N2CCC(C(=O)Nc3ccc4c(c3)OCO4)CC2)c1` [Compound 530], 2070 ± 710 nM.
In turn, `Cc1ccc(NC(=O)C2CCN(S(=O)(=O)c3cn(C(C)C)cn3)CC2)cc1F` [Compound 532] had a 50% inhibitory concentration (IC50) of 2850 ± 510 nM.
`CC(C)n1cnc(S(=O)(=O)N2CCC(C(=O)NCc3ccccc3)CC2)c1` [Compound 536] registered an IC50 of 2690 ± 800 nM.
The same measure, in the same setting: in the case of `CCc1ccc(NC(=O)C2CCN(S(=O)(=O)c3cn(CC)cn3)CC2)cc1` [Compound 539] it was 4300 ± 1660 nM.
In turn, `Cc1cccc(CNC(=O)C2CCN(S(=O)(=O)c3cn(C(C)C)cn3)CC2)c1` [Compound 540] displayed a half-inhibitory concentration (IC50) of 4180 ± 1090 nM.
In turn, `CCOc1ccc(NC(=O)C2CCN(S(=O)(=O)c3cn(CC)cn3)CC2)cc1` [Compound 543] came in with a half-maximal inhibitory concentration (IC50) of 3970 ± 1130 nM.
`COc1cc(OC)c(NC(=O)C2CCN(S(=O)(=O)c3cn(C(C)C)cn3)CC2)cc1Cl` [Compound 546] gave an IC50 of 2850 ± 780 nM.
The same measure, in the same setting: in the case of `CC(C)n1cnc(S(=O)(=O)N2CCC(C(=O)NCc3cccs3)CC2)c1` [Compound 549] it was 3420 ± 1330 nM; in that of `COc1cc(Cl)c(NC(=O)C2CCN(S(=O)(=O)c3cn(C(C)C)cn3)CC2)c(OC)c1` [Compound 552], 2870 ± 670 nM; in that of `CC(C)n1cnc(S(=O)(=O)N2CCC(C(=O)NCc3ccc(F)cc3)CC2)c1` [Compound 557], 3550 ± 1170 nM.

The test is the same for the next values; noted with them: concentration required for 50% inhibition of LPD activity; DTNB detection, OD405 nm.
The compound `COc1ccc(NC(=O)CN(C)S(=O)(=O)c2cc(Br)cnc2N)cc1OC` [Compound 502] yielded a concentration for half-maximal inhibition (IC50) of 840 ± 130 nM.
As to `CC(C)c1ccc(NC(=O)CN(C)S(=O)(=O)c2cc(Br)cnc2N)cc1` [Compound 505], the half-inhibitory concentration (IC50) is 840 ± 110 nM.
Consider `Cc1ccc(CNC(=O)CN(C)S(=O)(=O)c2cc(Br)cnc2N)cc1` [Compound 506], for which it took 3310 ± 490 nM to reach half-maximal inhibition (IC50).
`CC(C)n1cnc(S(=O)(=O)N2CCC(C(=O)Nc3ccccc3)CC2)c1` [Compound 507] returned an IC50 of 2770 ± 690 nM.
`Cc1cccc(NC(=O)C2CCN(S(=O)(=O)c3cn(C(C)C)cn3)CC2)c1` [Compound 508] registered an IC50 of 2610 ± 820 nM.
On the same count and under the same terms, as for `Cc1ccc(NC(=O)C2CCN(S(=O)(=O)c3cn(C(C)C)cn3)CC2)cc1C` [Compound 510], the figure is 2450 ± 210 nM; as for `CCc1cccc(NC(=O)C2CCN(S(=O)(=O)c3cn(C(C)C)cn3)CC2)c1` [Compound 511], 2550 ± 790 nM; as for `CCc1ccc(NC(=O)C2CCN(S(=O)(=O)c3cn(C(C)C)cn3)CC2)cc1` [Compound 512], 2900 ± 710 nM.
On the same count and under the same terms, as for `CC(C)n1cnc(S(=O)(=O)N2CCC(C(=O)Nc3ccc(S(N)(=O)=O)cc3)CC2)c1` [Compound 513], the figure is 4120 ± 1810 nM.
Compound `Cc1cc(C)cc(NC(=O)C2CCN(S(=O)(=O)c3cn(C(C)C)cn3)CC2)c1` [Compound 514] yielded an IC50 of 2670 ± 570 nM.
Turning to `CSc1cccc(NC(=O)C2CCN(S(=O)(=O)c3cn(C(C)C)cn3)CC2)c1` [Compound 515], the IC50 turned out to be 4810 ± 840 nM.
Compound `COc1cccc(NC(=O)C2CCN(S(=O)(=O)c3cn(C(C)C)cn3)CC2)c1` [Compound 516] registered an IC50 of 2460 ± 760 nM.
The same measure, in the same setting: as for `CC(C)n1cnc(S(=O)(=O)N2CCC(C(=O)Nc3cccc(F)c3)CC2)c1` [Compound 517], the figure is 3610 ± 980 nM; as for `CC(C)n1cnc(S(=O)(=O)N2CCC(C(=O)Nc3cccc(Cl)c3)CC2)c1` [Compound 518], 3830 ± 780 nM; as for `CC(C)n1cnc(S(=O)(=O)N2CCC(C(=O)Nc3cccc(Br)c3)CC2)c1` [Compound 519], 2760 ± 590 nM.
With `COc1ccc(NC(=O)C2CCN(S(=O)(=O)c3cn(C(C)C)cn3)CC2)cc1` [Compound 521], the IC50 turned out to be 2310 ± 360 nM.
In turn, `CC(C)n1cnc(S(=O)(=O)N2CCC(C(=O)Nc3ccc(Cl)cc3)CC2)c1` [Compound 522] returned a half-maximal inhibitory concentration (IC50) of 2940 ± 720 nM.
The compound `CC(C)n1cnc(S(=O)(=O)N2CCC(C(=O)Nc3ccc4c(c3)OCCO4)CC2)c1` [Compound 523] gave an IC50 of 1600 ± 480 nM.
The same measure, in the same setting: in the case of `CC(C)n1cnc(S(=O)(=O)N2CCC(C(=O)Nc3ccccc3F)CC2)c1` [Compound 524] it was 2670 ± 650 nM.
Regarding `CCOC(=O)c1ccc(NC(=O)C2CCN(S(=O)(=O)c3cn(C(C)C)cn3)CC2)cc1` [Compound 525], the IC50 was determined as 2440 ± 580 nM.
Consider `Cc1ccc(NC(=O)C2CCN(S(=O)(=O)c3cn(C(C)C)cn3)CC2)cc1N(C)C` [Compound 526], for which half-maximal inhibition (IC50) was put at 2790 ± 720 nM.
Still for that read-out and setting: as for `CC(C)n1cnc(S(=O)(=O)N2CCC(C(=O)Nc3ccc(F)c(Cl)c3)CC2)c1` [Compound 527], the figure is 3130 ± 790 nM; as for `COc1ccc(NC(=O)C2CCN(S(=O)(=O)c3cn(C(C)C)cn3)CC2)cc1OC` [Compound 528], 1830 ± 140 nM; as for `Cc1ccc(C)c(NC(=O)C2CCN(S(=O)(=O)c3cn(C(C)C)cn3)CC2)c1` [Compound 529], 3920 ± 2470 nM.
`Cc1cc(NC(=O)C2CCN(S(=O)(=O)c3cn(C(C)C)cn3)CC2)ccc1Br` [Compound 531] displayed a 50% inhibitory concentration (IC50) of 4110 ± 1590 nM.
Same read-out and setting: in the case of `Cc1ccc(NC(=O)C2CCN(S(=O)(=O)c3cn(C(C)C)cn3)CC2)cc1Cl` [Compound 533] it was 2640 ± 190 nM; in that of `COc1ccc(NC(=O)C2CCN(S(=O)(=O)c3cn(C(C)C)cn3)CC2)cc1Cl` [Compound 534], 1690 ± 380 nM.
On the same count and under the same terms, as for `CC(C)n1cnc(S(=O)(=O)N2CCC(C(=O)Nc3cccc(-c4ccno4)c3)CC2)c1` [Compound 535], the figure is 2120 ± 210 nM; as for `COc1ccc(NC(=O)C2CCN(S(=O)(=O)c3cn(C(C)C)cn3)CC2)c(OC)c1` [Compound 537], 3400 ± 1600 nM.
The same measure, in the same setting: in the case of `CC(C)n1cnc(S(=O)(=O)N2CCC(C(=O)Nc3ccc(Br)cc3F)CC2)c1` [Compound 538] it was 2540 ± 570 nM.
For `CCn1cnc(S(=O)(=O)N2CCC(C(=O)Nc3ccc(OC)cc3)CC2)c1` [Compound 541], the midpoint of inhibition, the IC50, lay at 3310 ± 1220 nM.
For `Cc1ccc2nc(NC(=O)C3CCN(S(=O)(=O)c4cn(C(C)C)cn4)CC3)sc2c1` [Compound 542], half-maximal inhibition (IC50) required 5060 ± 1090 nM.
Take `CCn1cnc(S(=O)(=O)N2CCC(C(=O)Nc3ccc(C)c(Cl)c3)CC2)c1` [Compound 544]: half-maximal inhibition (IC50) was put at 4550 ± 1270 nM.
Compound `CCn1cnc(S(=O)(=O)N2CCC(C(=O)Nc3ccc4c(c3)OCCO4)CC2)c1` [Compound 545] registered a 50% inhibitory concentration (IC50) of 2690 ± 560 nM.
Compound `CC(C)n1cnc(S(=O)(=O)N2CCC(C(=O)NCCCc3ccccc3)CC2)c1` [Compound 547] gave a 50% inhibitory concentration (IC50) of 2670 ± 600 nM.
`CCn1cnc(S(=O)(=O)N2CCC(C(=O)Nc3ccc(OC)c(Cl)c3)CC2)c1` [Compound 548] gave a 50% inhibitory concentration (IC50) of 2350 ± 520 nM.
Still for that read-out and setting: in the case of `CCOc1ccc2nc(NC(=O)C3CCN(S(=O)(=O)c4cn(C(C)C)cn4)CC3)sc2c1` [Compound 550] it was 2130 ± 240 nM.
On to `COc1ccc2nc(NC(=O)C3CCN(S(=O)(=O)c4cn(C(C)C)cn4)CC3)sc2c1` [Compound 551], for which the IC50 stood at 2280 ± 110 nM.
As to `CCn1cnc(S(=O)(=O)N2CCC(C(=O)Nc3cccc(-c4ccno4)c3)CC2)c1` [Compound 553], 2680 ± 990 nM corresponded to half-maximal inhibition (IC50).
Regarding `CCOc1ccccc1CNC(=O)C1CCN(S(=O)(=O)c2cn(C(C)C)cn2)CC1` [Compound 554], the IC50 came out at 3420 ± 880 nM.
Consider `CC(C)n1cnc(S(=O)(=O)N2CCC(C(=O)NCc3ccc(Br)cc3)CC2)c1` [Compound 555], for which the 50% inhibitory concentration (IC50) is 3200 ± 1050 nM.
Turning to `CC(C)n1cnc(S(=O)(=O)N2CCC(C(=O)NCc3ccc(Cl)cc3)CC2)c1` [Compound 556], the half-inhibitory concentration (IC50) was 3750 ± 1010 nM.
The compound `COc1ccc(CNC(=O)C2CCN(S(=O)(=O)c3cn(C(C)C)cn3)CC2)cc1` [Compound 558] returned an IC50 of 3330 ± 800 nM.
For the compound `CC(C)n1cnc(S(=O)(=O)N2CCC(C(=O)NC3CC3)CC2)c1` [Compound 559], the IC50 worked out at 2990 ± 1390 nM.
With `CC(C)Oc1ccc(CNC(=O)C2CCN(S(=O)(=O)c3cn(C(C)C)cn3)CC2)cc1` [Compound 560], inhibition was half-maximal at 3860 ± 900 nM (IC50).
`CCOc1ccc(CNC(=O)C2CCN(S(=O)(=O)c3cn(C(C)C)cn3)CC2)cc1OC` [Compound 561]: the 50% inhibitory concentration (IC50) stood at 3020 ± 1780 nM.
The compound `CCOc1ccc2nc(NC(=O)C3CCN(S(=O)(=O)c4cn(CC)cn4)CC3)sc2c1` [Compound 562] gave an IC50 of 3500 ± 470 nM.
Regarding `CCn1cnc(S(=O)(=O)N2CCC(C(=O)Nc3nc4ccc(OC)cc4s3)CC2)c1` [Compound 563], the IC50 worked out at 3020 ± 870 nM.
For the compound `COc1ccc(CCNC(=O)C2CCN(S(=O)(=O)c3cn(C(C)C)cn3)CC2)cc1OC` [Compound 564], half-maximal inhibition (IC50) required 2220 ± 520 nM.
In turn, `CCSc1nnc(NC(=O)C2CCN(S(=O)(=O)c3cn(CC)cn3)CC2)s1` [Compound 565] displayed a concentration for half-maximal inhibition (IC50) of 3060 ± 470 nM.
Compound `CCn1cnc(S(=O)(=O)N2CCC(C(=O)NCCc3nc4cc(C)ccc4[nH]3)CC2)c1` [Compound 566] had an IC50 of 3910 ± 790 nM.
For the compound `Cn1c(=O)nc2[nH]nc(/C=C/c3ccccc3)nc-2c1=O` [Compound 622], the 50% inhibitory concentration (IC50) was 2160 ± 260 nM.
In the case of `COc1ccc2cc(CNc3ccc(O)cc3)c(O)nc2c1` [Compound 801], the half-inhibitory concentration (IC50) was determined as 2250 ± 160 nM.
The compound `CCOc1ccc2cc(CNc3ccc(O)cc3)c(O)nc2c1` [Compound 802] gave an IC50 of 3340 ± 260 nM. The IC50 values of the last two compounds are within 1.5-fold of each other.
In turn, `Oc1ccc(NCc2cc3ccccc3nc2O)cc1` [Compound 803] came in with a concentration for half-maximal inhibition (IC50) of 1620 ± 180 nM.
Take `Oc1ccc(NCc2cc3cc4c(cc3nc2O)OCO4)cc1` [Compound 804]: the IC50 is 4670 ± 570 nM.
The compound `Cc1ccc2cc(CNc3ccc(O)cc3)c(O)nc2c1` [Compound 805] came in with an IC50 of 1640 ± 140 nM.
With `CCc1ccc2nc(O)c(CNc3ccc(N(C)C)cc3)cc2c1` [Compound 806], 4730 ± 910 nM corresponded to half-maximal inhibition (IC50).
Take `CCOc1ccc2nc(O)c(CNc3ccc4[nH]ncc4c3)cc2c1` [Compound 807]: it took 4540 ± 770 nM to reach half-maximal inhibition (IC50).
As to `COCCN(C(=O)c1cccs1)c1nc2c(s1)CCc1c-2cnn1C` [Compound 1101], half-maximal inhibition (IC50) was put at 1620 ± 240 nM.
Still for that read-out and setting: in the case of `CCCN(C(=O)c1ccc(COC)o1)c1nc2c(s1)CCc1c-2cnn1C` [Compound 1102] it was 3160 ± 430 nM.

The IC50 is the concentration at which inhibition is half-maximal. Lower therefore signals inhibition by little substance.

These data come from US9073941B2, “Compounds and methods for treating tuberculosis infection” (Academia Sinica, priority 2010, dated 2015).
